What is called IC50 is the concentration that inhibits the measured activity by half. Read a low IC50 as higher potency.

SMILES strings stand for the structures.

What all share (format): functional, cell-based
One experiment has as its system A2780. Briefly: Antiproliferative activity against human A2780 cells after 2 days by alamar blue assay. The following applies: A2780, 48 h. Background: Alamar Blue is a resazurin reagent that responds to reducing activity.
Another experiment has as its system HCC 2998. Description: Antiproliferative activity against human HCC2998 cells.
The next experiment deals with DU-145. Description: Antiproliferative activity against human DU145 cells.
Another experiment relates to BT-549. Description: Antiproliferative activity against human BT549 cells.
In a further experiment the test system is NCI-H460. Briefly: Antiproliferative activity against human NCI-H460 cells.

On to `C/C=C(/C)C(=O)O[C@H]1[C@H](OC(=O)[C@]2(C)O[C@@H]2C)C(C)(C)C[C@H]2C3=CC[C@@H]4[C@@]5(C)CC[C@H](O[C@@H]6O[C@H](C(=O)O)[C@@H](O)[C@H](O[C@@H]7O[C@@H](CO)[C@H](O)[C@H]7O)[C@H]6O[C@@H]6O[C@H](CO)[C@@H](O)[C@H](O)[C@H]6O)C(C)(C)[C@@H]5CC[C@@]4(C)[C@]3(C)C[C@@H](O)[C@]21CO` [DODONAEASIDE B], for which the IC50 in the experiment on A2780 came out at 0.7 µM.

As for `C/C=C(/C)C(=O)O[C@H]1[C@H](OC(=O)/C(C)=C\C)[C@]2(CO)[C@H](O)[C@H](O)[C@]3(C)C(=CC[C@@H]4[C@@]5(C)CC[C@H](O[C@@H]6O[C@H](C(=O)O)[C@@H](O)[C@H](O[C@@H]7O[C@@H](CO)[C@H](O)[C@H]7O)[C@H]6O[C@@H]6O[C@H](CO)[C@@H](O)[C@H](O)[C@H]6O)C(C)(C)[C@@H]5CC[C@]43C)[C@@H]2CC1(C)C` [DODONAEASIDE A], the IC50 with A2780 was 0.79 µM; in the experiment with HCC 2998, more than 5 µM; in the experiment on DU-145, more than 5 µM; in the experiment on BT-549 it was more than 5 µM; in the experiment on NCI-H460, more than 5 µM.

For the origin of these results see ChEMBL document CHEMBL1154254, “Antiproliferative triterpenoid saponins of Dodonaea viscosa from the Madagascar dry forest” (J Nat Prod, 2009).
